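How tested: cells in 96-well plates exposed to compound for 48 hours at five concentrations. Definition used: TGI = concentration required for complete inhibition of growth.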
Legend:
Assay in all cases: NCI-60 cell line screen, 48 h
[1] = system: MCF7 breast
[2] = system: NCI-H226 lung
[3] = system: HCC-2998 colon
[4] = system: OVCAR-8 ovarian
[5] = system: SK-MEL-5 melanoma
[6] = system: HOP-92 NSCLC
[7] = system: HOP-62 NSCLC
[8] = system: SW-620 colon
[9] = system: SK-MEL-28 melanoma
[10] = system: UACC-257 melanoma
[11] = system: PC-3 prostate
[12] = system: UO-31 renal
[13] = system: HT29 colon
[14] = system: SNB-75 CNS
[15] = system: CCRF-CEM leukemia
[16] = system: SK-MEL-2 melanoma
[17] = system: UACC-62 melanoma
[18] = system: DU-145 prostate
[19] = system: IGROV1 ovarian
[20] = system: SF-295 CNS
[21] = system: SNB-19 CNS
[22] = system: MOLT-4 leukemia
[23] = system: HS 578T breast
[24] = system: COLO 205 colon
[25] = system: T-47D breast
[26] = system: SN12C renal
[27] = system: OVCAR-5 ovarian
[28] = system: M14 melanoma
[29] = system: ACHN renal
[30] = system: SF-539 CNS
[31] = system: MDA-N
[32] = system: NCI-H460 lung
[33] = system: NCI/ADR-RES ovarian
[34] = system: NCI-H522 lung
[35] = system: RXF 393 renal
[36] = system: MDA-MB-435
[37] = system: EKVX NSCLC
[38] = system: LOX IMVI melanoma
[39] = system: HCT-116 colon
[40] = system: OVCAR-3 ovarian
[41] = system: KM12 colon
[42] = system: NCI-H23 lung
[43] = system: SF-268 CNS
[44] = system: OVCAR-4 ovarian
[45] = system: A549 NSCLC
[46] = system: HL-60(TB) leukemia
[47] = system: U251 CNS
[48] = system: MDA-MB-231 breast
[49] = system: RPMI-8226 leukemia
[50] = system: SK-OV-3 ovarian
[51] = system: TK-10 renal
[52] = system: HCT-15 colon
[53] = system: 786-0 renal
[54] = system: A498 renal
[55] = system: K-562 leukemia
[56] = system: MALME-3M melanoma
[57] = system: SR leukemia

CC(=O)Oc1c(C)cc2c(c1C)C(C)CN2C(C)=O (stereo not given)
TGI [1]: > 100 µM
TGI [2]: > 100 µM
TGI [3]: > 100 µM
TGI [4]: > 100 µM
TGI [5]: > 100 µM
TGI [6]: > 100 µM
TGI [7]: > 100 µM
TGI [8]: > 100 µM
TGI [9]: > 100 µM
TGI [10]: > 100 µM
TGI [11]: > 100 µM
TGI [12]: > 100 µM
TGI [13]: > 100 µM
TGI [14]: > 100 µM
TGI [15]: > 100 µM
TGI [16]: > 100 µM
TGI [17]: > 100 µM
TGI [18]: > 100 µM
TGI [19]: > 100 µM
TGI [20]: > 100 µM
TGI [21]: > 100 µM
TGI [22]: > 100 µM
TGI [23]: > 100 µM
TGI [24]: > 100 µM
TGI [25]: > 100 µM
TGI [26]: > 100 µM
TGI [27]: > 100 µM
TGI [28]: > 100 µM
TGI [29]: > 100 µM
TGI [30]: > 100 µM
TGI [31]: > 100 µM
TGI [32]: > 100 µM
TGI [33]: > 100 µM
TGI [34]: > 100 µM
TGI [35]: > 100 µM
TGI [36]: > 100 µM
TGI [37]: > 100 µM
TGI [38]: > 100 µM
TGI [39]: > 100 µM
TGI [40]: > 100 µM
TGI [41]: > 100 µM
TGI [42]: > 100 µM
TGI [43]: > 100 µM
TGI [44]: > 100 µM
TGI [45]: > 100 µM
TGI [46]: > 100 µM
TGI [47]: > 100 µM
TGI [48]: > 100 µM
TGI [49]: > 100 µM
TGI [50]: > 100 µM
TGI [51]: > 100 µM
TGI [52]: > 100 µM
TGI [53]: > 100 µM
TGI [54]: > 100 µM
TGI [55]: > 100 µM

CCOC1CCC2C(CCC(/C=C/c3ccc(O)c4ncccc34)N2C)C1 (stereo not given)
TGI [1]: > 100 µM
TGI [2]: > 100 µM
TGI [3]: > 100 µM
TGI [4]: > 100 µM
TGI [5]: > 100 µM
TGI [6]: 59.7 µM
TGI [7]: > 100 µM
TGI [8]: > 100 µM
TGI [56]: > 100 µM
TGI [9]: > 100 µM
TGI [57]: > 100 µM
TGI [11]: > 100 µM
TGI [12]: > 100 µM
TGI [13]: > 100 µM
TGI [15]: > 100 µM
TGI [17]: > 100 µM
TGI [18]: > 100 µM
TGI [19]: > 100 µM
TGI [20]: > 100 µM
TGI [21]: > 100 µM
TGI [22]: > 100 µM
TGI [23]: 51.6 µM
TGI [24]: 11.9 µM
TGI [25]: 62 µM
TGI [26]: > 100 µM
TGI [27]: > 100 µM
TGI [28]: > 100 µM
TGI [29]: > 100 µM
TGI [30]: 29.2 µM
TGI [31]: > 100 µM
TGI [32]: > 100 µM
TGI [33]: > 100 µM
TGI [34]: 5.89 µM
TGI [37]: 90.4 µM
TGI [41]: 95.2 µM
TGI [42]: 66 µM
TGI [43]: > 100 µM
TGI [45]: > 100 µM
TGI [46]: > 100 µM
TGI [47]: > 100 µM
TGI [49]: > 100 µM
TGI [51]: > 100 µM
TGI [52]: > 100 µM
TGI [53]: > 100 µM
TGI [55]: > 100 µM

Reference: PubChem BioAssay (NCI)
